Test results published in US7157430B2, “(Substituted)acyl dipeptidyl inhibitors of the ICE/CED-3 family of cysteine proteases” (Idun Pharmaceuticals, Inc., priority 1998, dated 2007).
Where two headings read alike, the source gives them in different places.

What was measured:
Format in all cases: biochemical
mICE = biological target: T1, mICE (Mus musculus, UniProt P29452); experiment: Fluorescence enzyme assay, IC50 determination, ICE
T1 sequence (P29452 123-296 limits assumed): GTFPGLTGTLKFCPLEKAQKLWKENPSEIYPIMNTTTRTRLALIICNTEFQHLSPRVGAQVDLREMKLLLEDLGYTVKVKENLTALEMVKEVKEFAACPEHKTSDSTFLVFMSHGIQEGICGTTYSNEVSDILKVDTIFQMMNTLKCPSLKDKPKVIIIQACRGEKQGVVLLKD
T1 sequence (P29452 315-402 limits assumed): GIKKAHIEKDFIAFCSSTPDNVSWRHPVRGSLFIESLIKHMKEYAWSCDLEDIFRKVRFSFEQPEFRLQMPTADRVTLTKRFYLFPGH
Experimental: (§1) Fluorescence enzyme assays detecting the activity of the compounds of Formula 1 utilizing the recombinant ICE and CPP32 enzymes are performed essentially according to Thornberry et al. (Nature, 356:768:774 (1992)) and Nicholson et al. (Nature, 376:37–43 (1995)) respectively, (herein incorporated by reference) in 96 well microtiter plates. The substrate is Acetyl-Tyr-Val-Ala-Asp-amino-4-methylcoumarin (AMC) for the ICE assay and Acetyl-Asp-Glu-Val-Asp-amino-4-methylcoumarin for the CPP32, Mch2, Mch3 and Mch5 assays. Enzyme reactions are run in ICE buffer (25 mM HEPES, 1 mM EDTA, 0.1% CHAPS, 10% sucrose, pH 7.5) containing 2 mM DTT at room temperature in duplicate.
(§2) The enzyme and the compound of Formula I to be assayed are allowed to preincubate in the microtitre plate wells for 30 minutes at room temperature prior to the addition of substrate to initiate the reaction. Fluorescent AMC product formation is monitored for one hour at room temperature by measuring the fluorescence emission at 460 nm using an excitation wavelength of 360 nm. The fluorescence change in duplicate (control) wells are averaged and the mean values are plotted as a function of inhibitor concentration to determine the inhibitor concentration producing 50% inhibition (IC50). The results of this assay are set forth below in Table 1 and in Table 3 (for Table 3, see Examples 11 through 52).
(§3) The reference compound for this assay was Cbz-ValAlaAsp-H and the values are denoted in Table 1 as “Reference”.

CPP32 = biological target: T2, CPP32 (Homo sapiens, UniProt P42574); experiment: Fluorescence enzyme assay, IC50 determination, CPP32
T2 sequence (P42574 29-175 limits assumed): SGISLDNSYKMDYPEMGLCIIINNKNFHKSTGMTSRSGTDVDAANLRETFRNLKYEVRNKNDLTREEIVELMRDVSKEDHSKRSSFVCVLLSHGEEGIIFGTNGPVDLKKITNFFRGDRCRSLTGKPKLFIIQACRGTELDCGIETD
T2 sequence (P42574 176-277 limits assumed): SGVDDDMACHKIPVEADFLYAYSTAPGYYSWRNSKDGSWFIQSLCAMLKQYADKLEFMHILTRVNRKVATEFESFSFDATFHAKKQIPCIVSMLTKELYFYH
Experimental: as §1, §2, §3

MCH-3 = biological target: T3, MCH-3 (Homo sapiens, UniProt P55210); experiment: Fluorescence enzyme assay, IC50 determination, Mch3
T3 sequence (P55210 24-198 limits assumed): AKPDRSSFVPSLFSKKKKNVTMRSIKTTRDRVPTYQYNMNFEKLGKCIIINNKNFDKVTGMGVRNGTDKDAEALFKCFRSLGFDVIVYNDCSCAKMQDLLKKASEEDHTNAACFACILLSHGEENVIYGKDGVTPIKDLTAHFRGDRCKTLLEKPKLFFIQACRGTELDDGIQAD
T3 sequence (P55210 207-303 limits assumed): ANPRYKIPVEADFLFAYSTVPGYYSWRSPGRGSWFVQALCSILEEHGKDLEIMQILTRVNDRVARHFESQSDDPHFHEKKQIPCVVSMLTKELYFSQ
Experimental: as §1, §2, §3

MCH-5 = MCH-5 (Homo sapiens, UniProt Q14790); experiment: Fluorescence enzyme assay, IC50 determination, Mch5
MCH-5, sequence (Q14790 217-374 limits assumed, species assumed): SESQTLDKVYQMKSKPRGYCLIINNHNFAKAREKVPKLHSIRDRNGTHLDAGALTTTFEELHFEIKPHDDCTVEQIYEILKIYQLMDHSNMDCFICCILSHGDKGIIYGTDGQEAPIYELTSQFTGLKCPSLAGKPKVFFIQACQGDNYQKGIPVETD
MCH-5, sequence (Q14790 385-479 limits assumed, species assumed): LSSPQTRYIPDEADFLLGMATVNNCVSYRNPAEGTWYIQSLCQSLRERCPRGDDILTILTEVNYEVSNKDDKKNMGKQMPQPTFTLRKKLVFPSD
Experimental: as §1, §2, §3

MCH-2 = biological target: T4, MCH-2 (Homo sapiens, UniProt P55212); experiment: Fluorescence enzyme assay, IC50 determination, Mch2
T4 sequence (P55212 24-179 limits assumed): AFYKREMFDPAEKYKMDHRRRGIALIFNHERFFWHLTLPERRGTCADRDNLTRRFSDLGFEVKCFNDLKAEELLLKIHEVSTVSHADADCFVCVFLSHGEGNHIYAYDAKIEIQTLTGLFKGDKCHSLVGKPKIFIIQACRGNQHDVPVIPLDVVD
T4 sequence (P55212 194-293 limits assumed): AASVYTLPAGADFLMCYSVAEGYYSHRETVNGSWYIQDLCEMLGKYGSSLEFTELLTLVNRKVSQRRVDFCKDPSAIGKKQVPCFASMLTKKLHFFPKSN
Experimental: as §1, §2, §3

[1] = Table 3, method of Preparation 3A, read-out: mICE I50
[2] = Table 3, method of Preparation 3A, read-out: CPP32 I50
[3] = Table 3, method of Preparation 3A, read-out: MCH3 I50
[4] = Table 3, method of Preparation 3A, read-out: MCH5 I50
[5] = Table 3, method of Preparation 3A, read-out: MCH2 I50

| SMILES | IC50 (mICE; [1]) [µM] | IC50 (CPP32; [2]) [µM] | IC50 (MCH-3; [3]) [µM] | IC50 (MCH-5; [4]) [µM] | IC50 (MCH-2; [5]) [µM] | IC50 (mICE; recombinant enzyme, Ac-YVAD-AMC substrate, 30 min preincubation, room temperature, read-out: mICE IC50) [µM] | IC50 (CPP32; recombinant enzyme, Ac-DEVD-AMC substrate, 30 min preincubation, room temperature, read-out: CPP32 IC50) [µM] | IC50 (MCH-3; Ac-DEVD-AMC substrate, 30 min preincubation, room temperature, read-out: MCH-3 IC50) [µM] | IC50 (MCH-5; Ac-DEVD-AMC substrate, 30 min preincubation, room temperature, read-out: MCH-5 IC50) [µM] | IC50 (MCH-2; Ac-DEVD-AMC substrate, 30 min preincubation, room temperature, read-out: MCH-2 IC50) [µM] |
| --- | --- | --- | --- | --- | --- | --- | --- | --- | --- | --- |
| CC(C)C[C@H](NC(=O)COc1ccccc1)C(=O)N[C@H](C=O)CC(=O)O [Example 38] | > 10 | 3.4 | > 10 | > 10 | > 50 | – | – | – | – | – |
| CC(C)C[C@H](NC(=O)CCc1cccc2ccccc12)C(=O)N[C@H](C=O)CC(=O)O [Example 11] | 1.86 | 1.59 | 8.78 | 12.2 | 4.19 | – | – | – | – | – |
| CC(C)C[C@H](NC(=O)CCOc1ccc2ccccc2c1)C(=O)N[C@H](C=O)CC(=O)O [Example 23] | 1.32 | 0.91 | 9.65 | 15.2 | 5.9 | – | – | – | – | – |
| CC(C)C[C@H](NC(=O)C(C)CC(=O)c1cccc2ccccc12)C(=O)N[C@H](C=O)CC(=O)O (some centres unmarked) [Example 20] | 4.55 | 9.88 | 29.8 | 3.25 | 24.9 | – | – | – | – | – |
| CC(C)C[C@H](NC(=O)COc1ccccc1Cc1ccccc1)C(=O)N[C@H](C=O)CC(=O)O [Example 42] | 0.521 | 0.49 | 3.36 | 6.05 | 10.1 | – | – | – | – | – |
| CC(C)C[C@H](NC(=O)COc1nccc2ccccc12)C(=O)N[C@H](C=O)CC(=O)O [Example 30] | 44.2 | 1.57 | 34.7 | > 50 | > 50 | – | – | – | – | – |
| CC(C)C[C@H](NC(=O)CNc1cccc2ccccc12)C(=O)N[C@H](C=O)CC(=O)O [Example 8, (3S)-3-[N-((1-Naphthylamino)Acetyl)Leucinyl]Amino-4-Oxobutanoic Acid] | – | – | – | – | – | 0.033 | 0.013 | 1.32 | 0.0076 | 0.037 |
